The source of these data is ChEMBL document CHEMBL4043108, “Identification of galiellalactone-based novel STAT3-selective inhibitors with cytotoxic activities against triple-negative breast cancer cell lines” (Bioorg Med Chem, 2017).

The source made the active and inactive calls. No cut-off for these calls is given here. Some results are limits rather than exact numbers.

Data set [1] concerns MDA-MB-468. The data set is described as follows: Effect on total STAT3 protein level in human MDA-MB-468 cells at 5 and 10 uM incubated for 4 hrs by Western blot. The format is cell-based. The conditions noted are these: mda-mb-468, 4 h.
Data set [2] deals with T1, Signal transducer and activator of transcription 1-alpha/beta (Homo sapiens) (UniProt P42224).
T1 sequence (whole entry): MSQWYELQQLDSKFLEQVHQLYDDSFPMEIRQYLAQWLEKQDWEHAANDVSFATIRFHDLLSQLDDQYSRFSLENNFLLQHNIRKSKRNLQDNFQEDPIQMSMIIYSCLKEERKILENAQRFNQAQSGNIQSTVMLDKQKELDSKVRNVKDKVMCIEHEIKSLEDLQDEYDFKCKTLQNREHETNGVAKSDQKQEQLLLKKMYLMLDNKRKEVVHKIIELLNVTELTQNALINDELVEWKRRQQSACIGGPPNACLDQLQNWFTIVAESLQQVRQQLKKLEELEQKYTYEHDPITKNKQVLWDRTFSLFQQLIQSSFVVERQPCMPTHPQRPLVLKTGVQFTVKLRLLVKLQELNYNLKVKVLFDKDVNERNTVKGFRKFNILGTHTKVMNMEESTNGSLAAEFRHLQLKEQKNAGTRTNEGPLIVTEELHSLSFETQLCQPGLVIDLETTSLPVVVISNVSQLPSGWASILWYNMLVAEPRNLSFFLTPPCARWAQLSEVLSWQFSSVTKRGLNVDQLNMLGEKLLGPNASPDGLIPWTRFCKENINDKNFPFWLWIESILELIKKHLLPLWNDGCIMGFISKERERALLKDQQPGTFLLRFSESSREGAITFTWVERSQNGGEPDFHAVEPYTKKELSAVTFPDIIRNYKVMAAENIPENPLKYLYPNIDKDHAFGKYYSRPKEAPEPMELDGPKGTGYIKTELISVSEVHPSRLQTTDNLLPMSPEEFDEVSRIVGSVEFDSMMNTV
Nature of the data set: Inhibition of STAT1 Tyr701 phosphorylation in human MDA-MB-468 cells at 5 and 10 uM incubated for 4 hrs by Western blot. The class given is cell-based.

Data set [3] can be described thus: Toxicity in human MDA-MB-468 cells assessed as cell viability at 5 uM incubated for 24 hrs by MTT assay (reference value: 100%). The following applies: read-out: Activity. The class given is cell-based.
A further data set has as its system MDA-MB-231. Nature of the data set: Cytotoxic activity against human MDA-MB-231 cells incubated for 24 hrs by MTT assay. The format is functional, cell-based. The following applies: MDA-MB-231, 24 h.
The nature of data set [4]: Toxicity in human MDA-MB-468 cells assessed as cell viability at 10 uM incubated for 24 hrs by MTT assay (reference value: 100%). The format is cell-based. The conditions noted are these: read-out: Activity.
Data set [5] has as its target Signal transducer and activator of transcription 3 (Homo sapiens) (UniProt P40763). Nature of the data set: Inhibition of STAT3 transcriptional activity in human MDA-MB-468 cells at 5 uM incubated for 24 hrs by STAT3-dependent luciferase reporter assay. The format is cell-based.
The target is the same in data set [6]. Nature of the data set: Inhibition of STAT3 Tyr705 phosphorylation in human MDA-MB-468 cells at 5 and 10 uM incubated for 4 hrs by Western blot. The class given is cell-based.
The subject of data set [7] is MDA-MB-468. Nature of the data set: Cytotoxic activity against human MDA-MB-468 cells incubated for 24 hrs by MTT assay. The class given is functional, cell-based. The following applies: MDA-MB-468, 24 h.
Data set [8] deals with MDA-MB-468. Nature of the data set: Effect on total STAT1 protein level in human MDA-MB-468 cells at 5 and 10 uM incubated for 4 hrs by Western blot. The format is cell-based. The conditions noted are these: mda-mb-468, 4 h.
The target of data set [9] is Signal transducer and activator of transcription 3 (Homo sapiens) (UniProt P40763). Nature of the data set: Inhibition of STAT3 Ser727 phosphorylation in human MDA-MB-468 cells at 5 and 10 uM incubated for 4 hrs by Western blot. The format is cell-based.
The subject of a further data set is BT-549. Nature of the data set: Cytotoxic activity against human BT549 cells incubated for 24 hrs by MTT assay. The format is functional, cell-based. The following applies: BT-549, 24 h.

Signal transducer and activator of transcription 3 (Homo sapiens), sequence (P40763 whole entry): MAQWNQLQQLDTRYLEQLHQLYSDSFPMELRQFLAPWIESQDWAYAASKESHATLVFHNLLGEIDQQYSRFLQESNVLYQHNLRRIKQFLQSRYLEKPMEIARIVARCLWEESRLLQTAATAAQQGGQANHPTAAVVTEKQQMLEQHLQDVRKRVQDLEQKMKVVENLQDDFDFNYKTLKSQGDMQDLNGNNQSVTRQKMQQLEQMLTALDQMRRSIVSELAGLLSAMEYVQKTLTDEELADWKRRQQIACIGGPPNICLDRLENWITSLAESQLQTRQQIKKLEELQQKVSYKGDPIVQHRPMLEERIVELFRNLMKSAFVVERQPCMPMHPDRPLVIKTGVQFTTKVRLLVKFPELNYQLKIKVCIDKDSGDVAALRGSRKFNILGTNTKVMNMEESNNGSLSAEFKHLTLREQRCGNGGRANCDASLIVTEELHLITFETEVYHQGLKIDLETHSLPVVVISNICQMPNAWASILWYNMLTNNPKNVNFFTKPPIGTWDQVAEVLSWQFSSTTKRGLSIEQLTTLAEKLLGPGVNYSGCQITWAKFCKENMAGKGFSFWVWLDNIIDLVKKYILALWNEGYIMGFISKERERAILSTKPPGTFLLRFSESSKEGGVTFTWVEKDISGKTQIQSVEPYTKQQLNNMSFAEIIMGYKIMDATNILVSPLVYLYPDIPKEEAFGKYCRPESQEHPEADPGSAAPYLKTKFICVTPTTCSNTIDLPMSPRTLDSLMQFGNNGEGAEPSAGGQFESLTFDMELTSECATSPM

On to `C=C1C(=O)O[C@@H]2CC[C@H](CBr)[C@]12O`, for which the Activity entry in the data set with MDA-MB-468 [1] and with MDA-MB-468 [8] was “Non-Toxic” each time. Further, the inhibition entry in data set [2] and in data set [9] was “inactive” each time. The viability at 24 h, 5 µM in data set [3] was 100%. The results for the IC50 with MDA-MB-231, with MDA-MB-468 [7] and with BT-549 were 12.1 µM, 11.8 µM and 9.63 µM, respectively. For the same compound, the viability at 24 h, 10 µM in [4] stood at 98%. Further, in data set [5], the inhibition result was “Active”. The inhibition entry in [6] is “Dose-dependent effect”.
For the compound `C[C@H]1C=C2C(=O)O[C@@H]3CC[C@H](C1=O)[C@]23O`, the IC50 with MDA-MB-231, with MDA-MB-468 [7] and with BT-549 was greater than 50 µM each time. For the same compound, the inhibition result in data set [5] is “inactive”.
Take `C=C1C(=O)O[C@@H]2CC[C@H](CBr)[C@H]12`: the IC50 was determined as 33.3 µM with MDA-MB-231, 42.6 µM with MDA-MB-468 [7] and 24.7 µM in the data set on BT-549.
As for `C=C1C(=O)O[C@@H]2CC[C@H](CBr)[C@]12OC`, the Activity entry in the data set with MDA-MB-468 [1] and with MDA-MB-468 [8] was “Non-Toxic” in each case. Moreover, the inhibition entry in [2] and in data set [9] was “inactive” each time. Moreover, in [3], the viability at 24 h, 5 µM amounted to 98%. The IC50 in the data set on MDA-MB-231 came to 8.63 µM; in the data set on MDA-MB-468 [7], 7.91 µM; in the data set on BT-549, 6.61 µM. For the same compound, the viability at 24 h, 10 µM in data set [4] was found to be 93%. The inhibition entry in data set [5] was “Active”. Moreover, in [6], the inhibition entry is “Dose-dependent effect”.
As to `C=C1C(=O)O[C@@H]2CC[C@H](CO)[C@H]12`, the IC50 in the data set with MDA-MB-231, in the data set on MDA-MB-468 [7] and with BT-549 was greater than 50 µM in each case. In addition, the inhibition result in data set [5] is “inactive”.
Take `C=C[C@@H](C)[C@H](O)[C@H]1CC[C@H]2CC(=O)C(=C)[C@]21O`: the IC50 with MDA-MB-231, in the data set on MDA-MB-468 [7] and with BT-549 was greater than 50 µM throughout. For the same compound, the inhibition entry in data set [5] was “inactive”.
Turning to `C=C1C(=O)O[C@@H]2CC[C@H](COC)[C@]12O`, the values for the IC50 in the data set on MDA-MB-231, with MDA-MB-468 [7] and in the data set with BT-549 were greater than 50 µM, greater than 50 µM and 37.9 µM, respectively. Further, the inhibition entry in [5] was “inactive”.
As for `C=C1C(=O)C[C@@H]2CC[C@H](CO)[C@]12O`, the IC50 with MDA-MB-231 is greater than 50 µM; with MDA-MB-468 [7], greater than 50 µM; in the data set on BT-549, 41.1 µM. For the same compound, in data set [5], the inhibition result is “inactive”.
Regarding `O=C1O[C@@H]2CC[C@@H]3[C@@H](O)CC=C1[C@@]32O`, the IC50 in the data set on MDA-MB-231, with MDA-MB-468 [7] and with BT-549 was greater than 50 µM in each case. In addition, the inhibition entry in [5] is “inactive”.
Compound `CN[C@@H]1C[C@H]2O[C@@](C)([C@@H]1OC)n1c3ccccc3c3c4c(c5c6ccccc6n2c5c31)C(=O)NC4` [STAUROSPORINE] gave an IC50 in the data set on MDA-MB-468 [7] of 0.15 µM.
Regarding `C=CC[C@@H](O)[C@H]1CC[C@H]2OC(=O)C(=C)[C@@]12O`, the IC50 with MDA-MB-231 is greater than 50 µM; in the data set with MDA-MB-468 [7] it was greater than 50 µM; in the data set with BT-549, 38.6 µM. For the same compound, the inhibition entry in data set [5] was “inactive”.
As for `C=C1C(=O)O[C@@H]2CC[C@H](CO)[C@]12OC`, the IC50 with MDA-MB-231, in the data set on MDA-MB-468 [7] and with BT-549 was greater than 50 µM each time. Besides, in [5], the inhibition result was “inactive”.
`O=C1O[C@@H]2CC[C@@H]3[C@H](O)CC=C1[C@@]32O`: the concentration for half-maximal inhibition (IC50) in the data set on MDA-MB-231, in the data set with MDA-MB-468 [7] and with BT-549 was greater than 50 µM each time. Further, the inhibition entry in data set [5] is “inactive”.
Regarding `C=C[C@H](C)[C@@H](O)[C@H]1CC[C@H]2CC(=O)C(=C)[C@]21O`, the values for the IC50 with MDA-MB-231, in the data set on MDA-MB-468 [7] and with BT-549 were greater than 50 µM, greater than 50 µM and 39.3 µM, respectively. In addition, the inhibition entry in data set [5] was “inactive”.
On to `C=C1C(=O)O[C@@H]2CC[C@H](CCl)[C@]12O`, for which the IC50 in the data set on MDA-MB-231, with MDA-MB-468 [7] and with BT-549 was greater than 50 µM throughout.
Turning to `C=C1C(=O)O[C@@H]2CC[C@H](CBr)[C@]12OCC`, the 50% inhibitory concentration (IC50) in the data set with MDA-MB-231 was determined as 9.11 µM; in the data set with MDA-MB-468 [7], 7.81 µM; with BT-549, 5.7 µM. For the same compound, the inhibition entry in data set [5] was “Active”.
For `C=C1C(=O)O[C@@H]2CC[C@H](COC)[C@]12OC`, the IC50 with MDA-MB-231, in the data set on MDA-MB-468 [7] and with BT-549 was greater than 50 µM throughout. In addition, the inhibition result in [5] was “inactive”.
As to `C=C1C(=O)O[C@@H]2CC[C@H](CBr)[C@]12OC(C)=O`, the IC50 in the data set with MDA-MB-231, in the data set with MDA-MB-468 [7] and with BT-549 was greater than 50 µM throughout.
As to `C=CCC(=O)[C@H]1CC[C@H]2OC(=O)C(=C)[C@@]12O`, the values for the IC50 in the data set on MDA-MB-231, in the data set with MDA-MB-468 [7] and in the data set with BT-549 were 48.3 µM, 42.4 µM and 25.3 µM, respectively. For the same compound, the inhibition entry in data set [5] is “inactive”.
Regarding `C[C@H]1C=C2C(=O)O[C@@H]3CC[C@H]([C@@H]1O)[C@]23O`, the IC50 with MDA-MB-231, in the data set on MDA-MB-468 [7] and with BT-549 was greater than 50 µM throughout. Besides, in data set [5], the inhibition result was “inactive”.
`C[C@@H]1C(=O)O[C@@H]2CC[C@H](CBr)[C@]12O`: the IC50 with MDA-MB-231, in the data set with MDA-MB-468 [7] and in the data set with BT-549 was greater than 50 µM each time. The inhibition entry in data set [5] was “inactive”.
On to `C=CC[C@H](O)[C@H]1CC[C@H]2OC(=O)C(=C)[C@@]12O`, for which the IC50 in the data set with MDA-MB-231 was determined as 43.6 µM; in the data set with MDA-MB-468 [7], 44.1 µM; with BT-549 it was 27.4 µM. Also, the inhibition entry in [5] was “inactive”.
Consider `C=C1C(=O)O[C@@H]2CC[C@H](CI)[C@]12O`, for which the IC50 in the data set on MDA-MB-231 was determined as 26 µM; with MDA-MB-468 [7], 23.6 µM; in the data set with BT-549 it was 17.3 µM.
As for `C[C@@H]1C=C2C(=O)O[C@@H]3CC[C@H]([C@H]1O)[C@]23O`, the IC50 with MDA-MB-231, in the data set with MDA-MB-468 [7] and in the data set with BT-549 was greater than 50 µM each time. Besides, in data set [5], the inhibition result was “inactive”.
In the case of `O=C1O[C@@H]2CC[C@H](CBr)[C@]2(O)[C@]12CO2`, the IC50 in the data set on MDA-MB-231, in the data set with MDA-MB-468 [7] and with BT-549 was greater than 50 µM each time. In addition, the inhibition entry in data set [5] was “inactive”.
In the case of `C=C1C(=O)O[C@@H]2CC[C@H](CF)[C@]12O`, the concentration for half-maximal inhibition (IC50) with MDA-MB-231 was 23.4 µM; in the data set with MDA-MB-468 [7] it was 22.6 µM; in the data set with BT-549 it was 7.91 µM.
